PubChem BioAssay (NCI)
Values joined by “and” are separate entries in the source; they are usually repeats but may differ in a detail not shown here. Equal entries are not always repeated.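 Step 1: Grow cells in 96-well plates. Step 2: Expose to compound for 48 hours at 5 concentrations. Step 3: Interpolate endpoints linearly; if unreached, use highest concentration. GI50 marks 50% less growth. TGI: total growth inhibition.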

Each molecule was assayed on MDA-MB-468 breast (assay: inhibition of tumour cell growth, NCI panel, 48 h).
For COc1ccc2c(c1)nnc1c3cccnc3[nH]c21, the GI50 was 66.7 nM and 55.6 nM and the TGI was 237 nM and 1100 nM.
With CC1=C[C@@H]2c3c(c(O)c(O)c4oc5cc(O)cc(O)c5c(=O)c34)[C@@H](c3cc(O)c(O)c4oc5cc(O)cc(O)c5c(=O)c34)[C@@H]2C(C)(C)C1 the GI50 was 3350 nM and the TGI was 16200 nM.
Cc1c(C(N)=O)sc2nc(C)n(/N=c3\scc(-c4ccccc4)n3Cc3ccccc3)c(=O)c12 was tested, and the GI50 was 2650 nM and the TGI was > 100000 nM.
CC(C)(C)[Si](C)(C)OC1[C@@H](COC(=O)NC(=O)CCl)O[C@@H](n2cnc3c(N)ncnc32)[C@H]1O[Si](C)(C)C(C)(C)C (stereo not given in full) was tested, and the GI50 was 3840 nM and the TGI was 11100 nM.
In the case of O=C1NC(=NCCc2ccc(Br)cc2)S/C1=C\c1ccc2ncccc2c1, the GI50 is reported as > 16500 nM and the TGI is reported as > 25000 nM.
Work on Cc1cc(N(CCNc2ccnc3cc(Cl)ccc23)Cc2ccc3c(c2)OCO3)nc(N2CCCC2)n1 yielded a GI50 of 1470 nM and a TGI of 3740 nM.
In the case of CCOC(=O)/C=C1/SC(=Nc2ccc(C#N)cc2)N(Cc2ccco2)C1=O, the GI50 is reported as 2970 nM and the TGI is reported as 14200 nM.
O=C1Cc2cc(CCN3CCNCC3)c(Cl)cc2N1 showed a GI50 of 2240 nM and a TGI of 7420 nM.
With CCS(=O)(=O)c1ccc(OC)c(Nc2ncc(-c3cccc(F)c3)o2)c1 the GI50 was > 25000 nM and the TGI was > 25000 nM.
With C[C@]12CCC(=O)C[C@@H]1CC[C@@H]1[C@@H]2CC[C@]2(C)[C@@H](OC(=O)N(CCCl)N=O)CC[C@@H]12 the GI50 was 1060 nM and the TGI was 4720 nM.
Work on COc1cc(-c2ccc[nH]2)[nH]c1/C=C1\N=C(C)C(CC(=O)OCC(C)(C)C)=C1C yielded a GI50 of 82 nM and a TGI of 1190 nM.
CC(=O)c1c(C)c2cnc(Nc3ccc(N4CCNCC4)cn3)nc2n(C2CCCC2)c1=O gave a GI50 of 3540 nM and a TGI of 15700 nM.
In the case of CNc1cc(-c2cccc(OC(F)(F)F)c2)nc2ccc(N3CCCC3)cc12, the GI50 is reported as 2110 nM and 1830 nM and the TGI is reported as 3870 nM and 3490 nM.
O=C1/C(=C/c2ccc([N+](=O)[O-])o2)Oc2ccc(Cl)cc21 gave a GI50 of 1550 nM and a TGI of 3450 nM.
In the case of COc1cc(C(=O)n2nc(N)c3c(C)cc(C)nc32)cc(OC)c1OC, the GI50 is reported as 2920 nM and the TGI is reported as > 100000 nM.
COC(=O)CC1=C(C)/C(=C/c2[nH]c(-c3ccc[nH]3)cc2OC)N=C1C was tested, and the GI50 was 162 nM and the TGI was 1760 nM.
Molecule COc1ccc2nc3ccccc3c(NCCNCC(C)O)c2c1 (stereo not given) has a GI50 of 300 nM and a TGI of 953 nM.
COc1cc(C2NC(=O)C(C#N)=C(Nc3cccc(C)c3)S2)ccc1O (stereo not given) was tested, and the GI50 was > 100000 nM and the TGI was > 100000 nM.
Work on CN1CCN(c2ccc(NC3=CC(=O)c4ncncc4C3=O)cc2)CC1 yielded a GI50 of 189 nM and a TGI of 416 nM.
In the case of COc1ccc([I+]c2ccc(OC)cc2)cc1, the GI50 is reported as 256 nM and the TGI is reported as 17900 nM.
Molecule COc1ccc(-c2[nH]ncc2Nc2cc(OC)c(OC)c(OC)c2)cc1 has a GI50 of 435 nM and a TGI of 52300 nM.
CC/C=C\C[C@H]1C/C=C2/C(=O)C(Cl)=C[C@@H]2C/C=C\CCCC(=O)O1 was tested, and the GI50 was 309 nM and the TGI was 869 nM.
S=C(SSC(=S)N1CCCCC1)N1CCCCC1 showed a GI50 of 16900 nM and a TGI of 69800 nM.
O=C1C(Cl)=C(NCCCN(CCCNC2=C(Cl)C(=O)c3ccccc3C2=O)C2=C(Cl)C(=O)c3ccccc3C2=O)C(=O)c2ccccc21 gave a GI50 of 1210 nM and a TGI of 2870 nM.
In the case of COC(=O)c1cc(-c2ccc(S(C)(=O)=O)cc2)[nH]c1N/N=C/c1c(Cl)cccc1Cl, the GI50 is reported as 4270 nM and the TGI is reported as > 100000 nM.
In the case of CCCCCCCCN=C(NCCCCCCCC)SCc1cccc2ccccc12, the GI50 is reported as 1410 nM and the TGI is reported as 2810 nM.
Work on CC12O[C@H](C[C@@H](OC(=O)CCC(=O)O)[C@H]1O)n1c3ccccc3c3c4c(c5c6ccccc6n2c5c31)C(=O)NC4=O yielded a GI50 of 1720 nM and a TGI of 10800 nM.
In the case of CNC(=O)c1cc(Oc2ccc(NC(=O)Nc3cc(C(C)(C)C)nn3-c3ccc4ncccc4c3)c(F)c2)ccn1, the GI50 is reported as 1950 nM and 2430 nM and the TGI is reported as 4530 nM and 5190 nM.
With O=C1/C(=C/c2ccc(C(F)(F)F)cc2)COc2ccc(O)c(O)c21 the GI50 was 1530 nM and the TGI was 2990 nM.
Work on C(=N\Nc1ccc2ccccc2n1)/c1ccccn1 yielded a GI50 of 313 nM and a TGI of 2460 nM.
Work on CCOCCOCCOCCOCCOCCOCCOCCOCCOCCO (tested in a mixture with another compound) yielded a GI50 of 372 nM and a TGI of 2180 nM.
Fc1ccc(Nc2nc(Nc3ccc(-c4nc5ccccc5[nH]4)cc3)c3cn[nH]c3n2)cc1 showed a GI50 of 1910 nM and a TGI of 3740 nM.
With CCC(=O)Nc1nnc(Cc2ccc(OC)c(OC)c2)s1 the GI50 was > 100000 nM and the TGI was > 100000 nM.
C=C(C)C(=O)Nc1ccc(-c2c(-c3ccc(Oc4nccc(C)n4)c(F)c3)c3c(N)ncnc3n2C)cc1 showed a GI50 of 1830 nM and a TGI of 6830 nM.
CSc1nc2c(c(=O)n1C)C(c1ccccc1)C1=C(N2)/C(=C/c2ccccc2)CCC1 (stereo not given) was tested, and the GI50 was 2840 nM and the TGI was 29700 nM.
In the case of CN(C)c1ccc2[nH]c3c(C(N)=O)cc(=O)c(=O)c=3oc2c1, the GI50 is reported as 2020 nM and the TGI is reported as 5520 nM.
In the case of Cc1cc(N2CCOCC2)nc(NCc2cc(Nc3ccnc4cc(Cl)ccc34)ccc2F)n1, the GI50 is reported as 1890 nM and the TGI is reported as 3910 nM.
CCN1C(=O)N(CC)C2C1N=C(SC)N2/N=C/C=C/c1ccccc1OC (stereo not given) gave a GI50 of 256 nM and a TGI of 729 nM.
Molecule O=C(CI)Nc1ccc(Br)cc1 has a GI50 of 1830 nM and a TGI of 3740 nM.
COc1cc2nc(-c3ccc(C(F)(F)F)cc3)cc(OCCCNCC3CCCO3)c2cc1OC (stereo not given) showed a GI50 of 8890 nM and a TGI of 23300 nM.
COc1cnccc1Nc1nc(-c2nn(Cc3c(F)cc(OCCO)cc3F)c3ccccc23)ncc1OC showed a GI50 of 2260 nM and a TGI of 10600 nM.
COc1ccc(-c2c(-c3ccc(C#N)c(F)c3)nc(N3CCC(N)CC3)n(C)c2=O)cc1F showed a GI50 of 7910 nM and a TGI of 23200 nM.
COc1ccc2c(c1)-c1c(c3cc(OC)ccc3n(CCN(C)C)c1=O)C2=O was tested, and the GI50 was 1750 nM and the TGI was 9190 nM.
For CCc1c(C)c2cc(-n3c(-c4ccc(OC)cc4)csc3=N)c(O)c(C)c2oc1=O, the GI50 was 1930 nM and the TGI was 7760 nM.
In the case of Oc1[nH]c2ccccc2c1C=Nc1ccc(-n2cncn2)cc1, the GI50 is reported as > 20700 nM and the TGI is reported as > 25000 nM.
